Results as given in patent US9351955B2, “Compounds and pharmaceutical compositions thereof for the treatment of cystic fibrosis” (Galapagos NV, priority 2013, dated 2016).
pEC50: −log10 of the molar value.

Tests used:
Format in all cases: cell-based
CFTR ΔF508 mutant = target: T1, CFTR ΔF508 mutant (Homo sapiens, UniProt P13569, DEL508-508); test: YFP-halide influx assay for the CFTR-ΔF508 mutation (384 well, CFBE41o- cells, FDSS/μCell); details: forskolin 10.67 μM, fluorescence after 36 seconds, read-out: EC50 measured by YFP-halide influx assay for the CFTR-ΔF508
T1 construct: expressed in transfected cells; host or cells: CFBE41o- (adenoviral transduction)
T1 sequence (P13569 with tags, fused parts or gaps DEL508-508): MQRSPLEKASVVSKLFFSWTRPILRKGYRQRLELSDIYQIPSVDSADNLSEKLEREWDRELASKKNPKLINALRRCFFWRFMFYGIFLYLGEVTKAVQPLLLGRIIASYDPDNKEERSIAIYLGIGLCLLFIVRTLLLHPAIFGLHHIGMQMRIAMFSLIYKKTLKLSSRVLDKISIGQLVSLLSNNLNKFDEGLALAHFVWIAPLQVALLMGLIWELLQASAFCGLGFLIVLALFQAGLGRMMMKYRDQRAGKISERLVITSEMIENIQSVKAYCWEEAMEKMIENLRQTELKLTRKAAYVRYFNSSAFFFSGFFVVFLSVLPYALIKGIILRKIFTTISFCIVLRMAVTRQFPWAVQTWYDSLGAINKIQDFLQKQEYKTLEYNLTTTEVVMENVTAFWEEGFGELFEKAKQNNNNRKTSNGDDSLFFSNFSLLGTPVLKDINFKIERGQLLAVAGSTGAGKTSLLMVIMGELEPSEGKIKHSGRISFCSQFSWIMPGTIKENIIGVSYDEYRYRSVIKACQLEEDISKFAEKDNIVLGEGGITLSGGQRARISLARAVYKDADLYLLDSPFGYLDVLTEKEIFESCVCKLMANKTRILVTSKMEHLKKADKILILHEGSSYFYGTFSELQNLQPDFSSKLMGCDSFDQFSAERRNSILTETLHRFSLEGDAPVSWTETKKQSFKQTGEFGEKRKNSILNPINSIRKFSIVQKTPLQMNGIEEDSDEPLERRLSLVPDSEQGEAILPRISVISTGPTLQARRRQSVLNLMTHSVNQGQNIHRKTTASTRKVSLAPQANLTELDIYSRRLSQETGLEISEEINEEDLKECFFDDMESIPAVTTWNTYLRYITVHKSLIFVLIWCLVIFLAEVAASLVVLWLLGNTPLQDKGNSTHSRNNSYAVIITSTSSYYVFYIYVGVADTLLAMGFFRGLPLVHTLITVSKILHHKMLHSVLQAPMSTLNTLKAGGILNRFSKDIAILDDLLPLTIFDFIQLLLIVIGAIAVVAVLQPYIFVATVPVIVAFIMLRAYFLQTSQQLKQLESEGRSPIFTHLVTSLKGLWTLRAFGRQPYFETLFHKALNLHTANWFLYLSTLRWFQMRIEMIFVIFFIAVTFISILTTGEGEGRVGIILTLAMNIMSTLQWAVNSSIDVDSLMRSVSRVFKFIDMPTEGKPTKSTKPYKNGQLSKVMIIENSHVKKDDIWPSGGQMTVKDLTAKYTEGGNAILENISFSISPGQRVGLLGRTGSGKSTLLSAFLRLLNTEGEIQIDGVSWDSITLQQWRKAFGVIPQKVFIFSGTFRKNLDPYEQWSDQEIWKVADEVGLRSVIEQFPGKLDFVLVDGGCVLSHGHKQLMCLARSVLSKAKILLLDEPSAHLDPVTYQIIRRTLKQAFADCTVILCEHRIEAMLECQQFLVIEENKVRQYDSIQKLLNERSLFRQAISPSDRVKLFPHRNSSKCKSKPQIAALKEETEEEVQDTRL
Method in brief: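 CFBE41o- cells were adenovirally transduced with ΔF508 CFTR and the YFP H148Q/I152L reporter. Cells were then held 24 h at 27 °C or treated 24 h at 37 °C with a CFTR modulator. Iodide-induced quench was recorded for 2 min, and EC50 was derived from 1−F/F0 at 36 s against compound concentration.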

CFTR-G178R = target: T2, CFTR-G178R (Homo sapiens, UniProt P13569, G178R); test: YFP-halide influx assay for the CFTR-G178R; details: read-out: EC50 measured by YFP-halide influx assay for the CFTR-G178R
T2 construct: expressed in transfected cells
T2 sequence (P13569 whole entry G178R): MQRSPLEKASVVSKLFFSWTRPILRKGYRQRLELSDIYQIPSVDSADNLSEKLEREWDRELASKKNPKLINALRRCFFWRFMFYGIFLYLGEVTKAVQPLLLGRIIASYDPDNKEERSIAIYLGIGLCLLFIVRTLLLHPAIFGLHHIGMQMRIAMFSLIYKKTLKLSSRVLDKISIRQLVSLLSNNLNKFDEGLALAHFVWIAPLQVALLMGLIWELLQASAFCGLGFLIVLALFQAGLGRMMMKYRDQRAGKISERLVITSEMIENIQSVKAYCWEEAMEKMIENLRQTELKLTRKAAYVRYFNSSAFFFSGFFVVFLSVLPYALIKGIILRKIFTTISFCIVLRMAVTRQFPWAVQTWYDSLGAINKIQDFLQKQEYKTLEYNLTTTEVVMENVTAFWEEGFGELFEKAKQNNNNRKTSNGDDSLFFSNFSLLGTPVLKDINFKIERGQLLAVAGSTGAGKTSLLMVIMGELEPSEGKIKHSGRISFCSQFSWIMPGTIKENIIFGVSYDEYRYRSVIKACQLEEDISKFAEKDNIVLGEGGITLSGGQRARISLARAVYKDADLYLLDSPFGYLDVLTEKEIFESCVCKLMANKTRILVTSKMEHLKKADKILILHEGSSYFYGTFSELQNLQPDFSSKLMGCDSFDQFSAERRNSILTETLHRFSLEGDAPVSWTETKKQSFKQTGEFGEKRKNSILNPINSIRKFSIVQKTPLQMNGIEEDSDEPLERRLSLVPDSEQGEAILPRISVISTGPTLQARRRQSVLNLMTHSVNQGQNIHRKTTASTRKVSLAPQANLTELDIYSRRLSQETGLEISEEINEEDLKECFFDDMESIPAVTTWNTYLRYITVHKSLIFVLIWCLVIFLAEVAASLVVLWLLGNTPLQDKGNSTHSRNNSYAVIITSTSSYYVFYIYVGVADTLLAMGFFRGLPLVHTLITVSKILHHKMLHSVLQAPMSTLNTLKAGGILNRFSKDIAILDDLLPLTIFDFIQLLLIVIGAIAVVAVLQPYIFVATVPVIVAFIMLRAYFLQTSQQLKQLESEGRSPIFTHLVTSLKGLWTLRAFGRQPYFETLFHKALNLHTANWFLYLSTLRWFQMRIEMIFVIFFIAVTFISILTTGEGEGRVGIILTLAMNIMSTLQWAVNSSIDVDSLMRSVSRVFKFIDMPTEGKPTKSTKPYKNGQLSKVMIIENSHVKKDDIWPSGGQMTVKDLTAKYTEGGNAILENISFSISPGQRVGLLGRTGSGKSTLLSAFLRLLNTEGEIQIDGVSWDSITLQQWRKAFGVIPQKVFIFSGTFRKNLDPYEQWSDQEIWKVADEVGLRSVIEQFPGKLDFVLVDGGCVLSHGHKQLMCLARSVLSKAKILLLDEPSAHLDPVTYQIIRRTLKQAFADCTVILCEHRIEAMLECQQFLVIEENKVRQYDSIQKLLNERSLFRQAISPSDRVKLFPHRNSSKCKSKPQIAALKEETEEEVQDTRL
From the text: (§1) The YFP halide influx assay measures the functionality of the cystic fibrosis Transmembrane Conductance regulator (CFTR) channels. The assay is used to evaluate the capacity of compounds to increase the channel opening of existing mutant CFTR channels in the membrane. It makes use of the observation that the yellow fluorescent protein (YFP) variant YFP H148Q, I152L, F47L has its fluorescence substantially quenched by halide ions like Cl^− and I^−. (Galietta et al., 2001)
(§2) For this purpose, HEK293-cells are seeded in 96 well plates. During seeding, the cells are reverse-transfected with plasmid vectors that direct the expression of the CFTR G551D mutant and of the YFP reporter. Cells are incubated at 37° C., 5% CO2 for 24 hours so as to allow for sufficient expression of the CFTR protein.
(§3) The I^−-induced quenching of fluorescence is recorded immediately after injection of I^− for 7 seconds. The capacity of a compound to increase the channel opening is directly correlated with the decrease in fluorescence, and is expressed as (1−(fluorescence after 7 seconds (F)/fluorescence before injection (F0))) and an EC50 can be derived from a (1−F/F0) vs compound concentration plot.
(§4) Similar YHA assays were developed for other channel gating defective or channel conductance defective CFTR mutants to determine effect of compound on channel activity. Examples of mutants are G178R, G1349D, S549N, R117H, R334W. This assay is also used for additional class I CFTR mutants, including G542X, W1282X; class II mutants including N1303K, and for class III mutants including S1251N; or wild-type CFTR.

CFTR-G1349D = target: T3, CFTR-G1349D (Homo sapiens, UniProt P13569, G1349D); test: YFP-halide influx assay for the CFTR-G1349D; details: CFTR-G1349D mutant; read-out: EC50 measured by YFP-halide influx assay for the CFTR-G1349D
T3 construct: expressed in transfected cells
T3 sequence (P13569 whole entry G1349D): as the sequence (P13569 whole entry G178R) above, with R178G, G1349D counted along it
From the text: as §1, §2, §3, §4

CFTR-S549N = target: T4, CFTR-S549N (Homo sapiens, UniProt P13569, S549N); test: YFP-halide influx assay for the CFTR-S549N; details: CFTR-S549N mutant; read-out: EC50 measured by YFP-halide influx assay for the CFTR-S549N
T4 construct: expressed in transfected cells
T4 sequence (P13569 whole entry S549N): as the sequence (P13569 whole entry G178R) above, with R178G, S549N counted along it
From the text: as §1, §2, §3, §4

CFTR-R117H = target: T5, CFTR-R117H (Homo sapiens, UniProt P13569, R117H); test: YFP-halide influx assay for the CFTR-R117H; details: CFTR-R117H mutant; read-out: EC50 measured by YFP-halide influx assay for the CFTR-R117H
T5 construct: expressed in transfected cells
T5 sequence (P13569 whole entry R117H): as the sequence (P13569 whole entry G178R) above, with R117H, R178G counted along it
From the text: as §1, §2, §3, §4

CFTR G551D mutant = target: T6, CFTR G551D mutant (Homo sapiens, UniProt P13569, G551D); test: YFP-halide influx assay for the CFTR-G551D mutation (HEK293 cells); details: HEK293 cells expressing CFTR G551D and YFP reporter; forskolin 10.67 μM; read-out: EC50 measured by YFP-halide influx assay for the CFTR-G551D
T6 construct: expressed in transfected cells; host or cells: HEK293 (reverse transfection with plasmids)
T6 sequence (P13569 whole entry G551D): as the sequence (P13569 whole entry G178R) above, with R178G, G551D counted along it
Method in brief: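 HEK293 cells reverse-transfected with CFTR G551D and halide-sensitive YFP, expressed 24 h at 37 °C. Iodide-induced fluorescence quench recorded for 7 s after I^− injection; response as 1−F/F0, EC50 from concentration plot.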

Structure (SMILES)	pEC50 (CFTR ΔF508 mutant)	pEC50 (CFTR-G178R)	pEC50 (CFTR-G1349D)	pEC50 (CFTR-S549N)	pEC50 (CFTR-R117H)	pEC50 (CFTR G551D mutant)
CC1(C)Cc2c(sc(NC(=O)c3n[nH]cc3C3=CCOCC3)c2C(N)=O)C(C)(C)O1 [Compound 45, N-(3-carbamoyl-5,5,7,7-tetramethyl-4H-thieno[2,3-c]pyran-2-yl)-4-(3,6-dihydro-2H-pyran-4-yl)-1H-pyrazole-3-carboxamide]	7.53	6.43	6.49	5.82	5.92	5.94
COCCOc1cc(C(=O)Nc2sc3c(c2C(N)=O)CC(C)(C)OC3(C)C)n[nH]1 [Compound 55, 5-(2-Methoxy-ethoxy)-1H-pyrazole-3-carboxylic acid (3-carbamoyl-5,5,7,7-tetramethyl-4,7-dihydro-5H-thieno[2,3-c]pyran-2-yl)-amide]	7.61	7.23	7.13	6.97	7.41	6.22
CCOCCc1c[nH]nc1C(=O)Nc1sc2c(c1C(N)=O)CC(C)(C)OC2(C)C [Compound 72, N-(3-carbamoyl-5,5,7,7-tetramethyl-4H-thieno[2,3-c]pyran-2-yl)-4-(2-ethoxyethyl)-1H-pyrazole-3-carboxamide]	7.75	7.50	7.19	6.91	6.83	6.43
CC1(C)Cc2c(sc(NC(=O)c3ccnn3COP(=O)(O)O)c2C(N)=O)C(C)(C)O1 [Compound 92, [5-[(3-carbamoyl-5,5,7,7-tetramethyl-4H-thieno[2,3-c]pyran-2-yl)carbamoyl]pyrazol-1-yl]methyl dihydrogen phosphate]	–	7.08	–	–	–	–
CC1(C)Cc2c(sc(NC(=O)c3n[nH]cc3C3COCCO3)c2C(N)=O)C(C)(C)O1 (centres unmarked) [Compound 95, N-(3-carbamoyl-5,5,7,7-tetramethyl-4H-thieno[2,3-c]pyran-2-yl)-4-(1,4-dioxan-2-yl)-1H-pyrazole-3-carboxamide]	7.61	–	7.09	6.54	6.97	5.97

More lines, in order of rising pEC50 (CFTR ΔF508 mutant), values ahead:

pEC50 (CFTR ΔF508 mutant)	pEC50 (CFTR-G178R)	pEC50 (CFTR-G1349D)	pEC50 (CFTR-S549N)	pEC50 (CFTR-R117H)	pEC50 (CFTR G551D mutant)	Structure (SMILES)
7.84	7.05	7.01	6.71	6.94	5.93	CCCc1c[nH]nc1C(=O)Nc1sc2c(c1C(N)=O)CC(C)(C)OC2(C)C [Compound 71, N-(3-carbamoyl-5,5,7,7-tetramethyl-4H-thieno[2,3-c]pyran-2-yl)-4-propyl-1H-pyrazole-3-carboxamide]
7.97	7.32	7.15	6.98	7.12	6.54	COCc1[nH]nc(C(=O)Nc2sc3c(c2C(N)=O)CC(C)(C)OC3(C)C)c1Cl [Compound 50, N-(3-carbamoyl-5,5,7,7-tetramethyl-4H-thieno[2,3-c]pyran-2-yl)-4-chloro-5-(methoxymethyl)-1H-pyrazole-3-carboxamide]
8.55	7.72	7.23	6.85	7.61	5.85	CC(C)CC(O)C(=O)Nc1sc2c(c1C(N)=O)CC(C)(C)OC2(C)C (centres unmarked) [Compound 46, 2-[(2-hydroxy-4-methyl-pentanoyl)amino]-5,5,7,7-tetramethyl-4H-thieno[2,3-c]pyran-3-carboxamide]
8.66	7.85	7.61	7.50	7.82	6.39	CC1(C)Cc2c(sc(NC(=O)[C@@H](O)C(C)(C)C)c2C(N)=O)C(C)(C)O1 [Compound 76, 2-[[(2S)-2-hydroxy-3,3-dimethyl-butanoyl]amino]-5,5,7,7-tetramethyl-4H-thieno[2,3-c]pyran-3-carboxamide]
8.71	7.40	7.22	7.06	7.94	–	CC(C)C(O)C(=O)Nc1sc2c(c1C(N)=O)CC(C)(C)OC2(C)C (single isomer, unassigned) [Compound 52, 2-[[2-hydroxy-3-methyl-butanoyl]amino]-5,5,7,7-tetramethyl-4H-thieno[2,3-c]pyran-3-carboxamide]
